Results reported in patent publication US20120121691A1, “Method for Increasing the Production of a Specific ACYL-Chain Dihydroceramide(s) for Improving the Effectiveness of Cancer Treatments” (priority 2010, published 2012).

Legend:
COG-LL-317 = assay: DIMSCAN cytotoxicity assay, COG-LL-317; format: cell-based; settings: COG-LL-317, sphinganine 1 μM, GT-11 0.5 μM, 48 hours
Description: (§1) Cell culture. The pre-T acute lymphoblastic leukemia cell lines MOLT-4 and CCRF-CEM, small cell lung cancer cell line NCI-H146, non-small cell lung cancer cell line NCI-H1792, colon cancer cell lines LoVo and HT-29, and breast cancer cell line MCF-7, were purchased from American Type Culture Collection, Manassas, Va., and grown at 20%/5% and 5%/5%, respectively. COG-LL-317 and COG-LL-332 pre-T acute lymphoblastic leukemia cell lines were obtained from the TTUHSC Cancer Center Cell Repository and grown at 5%/5%. Cell line identities were verified by short tandem repeat analysis and mycoplasma testing was performed. Cell lines were maintained in RPMI-1640 medium supplemented with 10% fetal bovine serum (FBS, Invitrogen) in humidified, 37° C. incubators. For all experiments, ALL cell lines were seeded at […] in RPMI-1640 medium supplemented with 15% fetal bovine serum. Solid tumor cell lines were plated at 5×cells/mL in RPMI-1640 medium supplemented with 10% fetal bovine serum.
(§2) Cytotoxicity Assay. Cytoxicity is determined using the DIMSCAN assay system (R. Proffitt et al., Cytometry 24, 204-213 (1996); T. Frgala et al., Proc. AACR, 36, 303 (1995). The system employs digital imaging microscopy to quantify viable cells, which selectively accumulate fluorescein diacetate to become brightly fluorescent. The system is capable of measuring cytotoxicity over a 4-5 log dynamic range by quenching the residual fluorescence of dead and dying cells with eosin Y and quantifying the total fluorescence of viable cells using digital thresholding. Measured fluorescence is directly proportionate to the number of viable cells. A comparison of the total fluorescence of a drug-treated cell population to the fluorescence of a similar number of untreated cells yields a survival fraction. […]
(§3) The addition of C22:0-fatty acid, but not C18:0 or C22:1 fatty acids, increased cytotoxicity (FIGS. 7A-7F). […] Cytotoxicity was measured using DIMSCAN, and data was normalized to control and plotted as survival fraction (y-axis). […]

COG-LL-332 = assay: DIMSCAN cytotoxicity assay, COG-LL-332; format: cell-based; settings: COG-LL-332, sphinganine 1 μM, GT-11 0.5 μM, 48 hours
Description: as §1, §2, §3

MOLT-4 ALL cells = assay: DIMSCAN cytotoxicity assay, MOLT-4; format: cell-based, human; settings: MOLT-4, sphinganine 1 μM, GT-11 0.5 μM, 48 hours
Description: as §1, §2, §3

| SMILES | effect of fatty acid co-treatment on cytotoxicity of sphinganine with GT-11 (COG-LL-317) | effect of fatty acid co-treatment on cytotoxicity of sphinganine with GT-11 (COG-LL-332) | effect of fatty acid co-treatment on cytotoxicity of sphinganine with GT-11 (MOLT-4 ALL cells) |
| --- | --- | --- | --- |
| CCCCCCCCCCCCCCCCCCCCCC(=O)O [C22:0-fatty acid] | increased | increased | increased |
| CCCCCCCC/C=C\CCCCCCCCCCCC(=O)O [C22:1-fatty acid] | not | not | not |
